Among the data in patent publication US8450313B2, “2,3-diaryl- or heteroaryl-substituted 1,1,1-trifluoro-2-hydroxypropyl compounds” (Hoffmann-La Roche Inc., priority 2009, dated 2013) are Ki values, retold here.

Each structure is given as a SMILES string.

For this assay, the target named is T1, full length human recombinant glucocorticoid receptor (Homo sapiens, UniProt P04150).
T1 construct: It contains some partially purified full length human recombinant glucocorticoid receptor; purchased Panvera/Invitrogen PV4302
T1 sequence (P04150 1-777): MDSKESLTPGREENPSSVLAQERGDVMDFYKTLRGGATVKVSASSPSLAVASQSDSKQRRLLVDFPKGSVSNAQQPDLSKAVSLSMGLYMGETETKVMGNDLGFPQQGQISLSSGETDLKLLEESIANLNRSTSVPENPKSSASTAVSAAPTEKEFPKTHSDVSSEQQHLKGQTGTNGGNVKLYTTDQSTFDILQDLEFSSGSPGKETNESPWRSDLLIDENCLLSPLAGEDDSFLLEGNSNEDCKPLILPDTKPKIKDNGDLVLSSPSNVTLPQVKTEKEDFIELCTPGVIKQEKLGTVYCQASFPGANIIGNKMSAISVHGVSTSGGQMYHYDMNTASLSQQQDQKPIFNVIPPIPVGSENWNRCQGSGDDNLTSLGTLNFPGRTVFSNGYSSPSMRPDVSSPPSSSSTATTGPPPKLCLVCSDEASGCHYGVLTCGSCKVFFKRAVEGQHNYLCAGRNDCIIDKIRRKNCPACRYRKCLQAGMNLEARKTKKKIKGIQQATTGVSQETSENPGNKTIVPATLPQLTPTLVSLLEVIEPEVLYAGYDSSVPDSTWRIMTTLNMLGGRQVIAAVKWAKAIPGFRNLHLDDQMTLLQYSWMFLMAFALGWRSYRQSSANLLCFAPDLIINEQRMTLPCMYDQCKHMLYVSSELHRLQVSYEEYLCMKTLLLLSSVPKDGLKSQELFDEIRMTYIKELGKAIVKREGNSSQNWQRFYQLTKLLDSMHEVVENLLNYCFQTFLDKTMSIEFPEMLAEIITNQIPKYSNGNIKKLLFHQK
Put plainly: Glucocorticoid Receptor Binding Assay (Glucocorticoid Receptor Competitor Assay far red kit, fluorescence polarization). The settings on record: competition with fluorescent GR ligand Fluormone GS Far Red, 3 hours at 22° C., pH 7.4; Ki calculated from IC50 by Cheng-Prusoff. Here is the method: Glucocorticoid Receptor Binding Assay
The ability of the substances to bind to the glucocorticoid receptor was determined with the help of a commercial Glucocorticoid Receptor Competitor Assay far red kit provided by Panvera/Invitrogen (PV4302). This kit is used as provided by the supplier. It contains some partially purified full length human recombinant glucocorticoid receptor, a coactivator related GR stabilizing peptide, a tight-binding fluorescent GR ligand Fluormone™ GS Far Red as labeled tracer and a screening buffer. All reagents are prepared and the assay is run according to the recommendations of the kit manufacturer.
Briefly, the GR stabilizing peptide and the human recombinant glucocorticoid receptor are both diluted with the screening buffer (pH 7.4) and are gently mixed (no vortexing) just before the assay and kept on ice until use. The fluorescent-labeled ligand is also diluted with the screening buffer just before the assay and kept on ice until use. The substances to test are pre-diluted in pure DMSO then some water is added to get an intermediate 4.2% DMSO stock solution. Ten microliter of the intermediate stock solution is gently mixed with 5 μA of diluted fluorescent-labeled ligand and 5 μl of diluted human recombinant glucocorticoid receptor in a 384-well plate (low volume, ultraclear, glass plate from Greiner ref 788896). The plate is centrifuged, sealed and incubated for 3 hours at 22° C. in the dark. The polarized fluorescence is measured with a Zeiss-HTS reader or any equivalent equipment (610-660 nm).
All compounds were tested to determine IC50 in a serial dilution experiment. The concentration at which 50% inhibition of the fluorescent GR ligand Fluormone™ GS Far Red is obtained (the IC50) is determined after fitting with a sigmoidal dose-response model of a plot of the logarithm of the concentration versus percent inhibition measured for the different concentrations. Ki's were calculated from IC50 based on Cheng-Prusoff equation (Cheng, Y, Prusoff, W H (1973) Biochem Pharmacol 22, 3099-3108): Ki=IC50/[1+D/Kd] wherein D is the concentration of the fluorescent ligand and Kd is the binding constant for the fluorescent ligand binding to the receptor under the conditions used in the competition experiment.
`C[C@H](c1ccc(-c2cccc(CC(=O)O)c2)cc1Cl)[C@@](O)(c1ccc2c(c1)n(C)c(=O)n2C)C(F)(F)F` (stereo in doubt) [Example 83, {3′-Chloro-4′-[2-(1,3-dimethyl-2-oxo-2,3-dihydro-1H-benzoimidazol-5-yl)-3,3,3-trifluoro-2-hydroxy-1-methyl-propyl]-biphenyl-3-yl}-acetic acid]: the Ki is 2.2 nM.
Regarding `CCN1C(=O)COc2ccc([C@@](O)([C@@H](C)c3ccc(Oc4ccc(C(=O)O)c(Cl)n4)cc3Cl)C(F)(F)F)cc21` (relative stereo) [Example 69, 2-Chloro-6-{3-chloro-4-[2-(4-ethyl-3-oxo-3,4-dihydro-2H-benzo[1,4]oxazin-6-yl)-3,3,3-trifluoro-2-hydroxy-1-methyl-propyl]-phenoxy}-nicotinic acid], the Ki is 35.9 nM.
Regarding `C[C@H](c1ccc(Oc2cc(Cl)ncc2C(=O)O)cc1Cl)[C@@](O)(c1ccc2c(c1)n(C)c(=O)n2C)C(F)(F)F` (stereo in doubt) [Example 108, 6-Chloro-4-{3-chloro-4-[2-(1,3-dimethyl-2-oxo-2,3-dihydro-1H-benzoimidazol-5-yl)-3,3,3-trifluoro-2-hydroxy-1-methyl-propyl]-phenoxy}-nicotinic acid], the Ki was 10.4 nM.
Then `COC(=O)c1cnc(Oc2ccc([C@@H](C)[C@@](O)(c3ccc4oc(=O)n(C)c4c3)C(F)(F)F)c(Cl)c2)c(Cl)c1` (relative stereo) [Example 175, 5-Chloro-6-{3-chloro-4-[3,3,3-trifluoro-2-hydroxy-1-methyl-2-(3-methyl-2-oxo-2,3-dihydro-benzooxazol-5-yl)-propyl]-phenoxy}-nicotinic acid methyl ester], with 1.8 nM.
Regarding `C[C@H](c1ccc(Oc2ccc(C(=O)O)cn2)cc1Cl)[C@@](O)(c1ccc2c(c1)OCC(=O)N2C)C(F)(F)F` (relative stereo) [Example 169, 6-{3-Chloro-4-[3,3,3-trifluoro-2-hydroxy-1-methyl-2-(4-methyl-3-oxo-3,4-dihydro-2H-benzo[1,4]oxazin-7-yl)-propyl]-phenoxy}-nicotinic acid], the Ki is 28.2 nM.
On to `C[C@@H](c1ccc(-c2ccc(F)c(C(=O)O)c2)cc1Cl)[C@](O)(c1ccc2c(c1)N(C)S(=O)(=O)N2C)C(F)(F)F` (relative stereo) [Example 162, 3′Chloro-4′-[2-(1,3-dimethyl-2,2-dioxo-2,3-dihydro-1H-2λ6-benzo[1,2,5]thiadiazol-5-yl)-3,3,3-trifluoro-2-hydroxy-1-methyl-propyl]-4-fluoro-biphenyl-3-carboxylic acid], for which the Ki was 10.8 nM.
Turning to `C[C@@H](c1ccc(-c2cccc(CC(=O)O)c2)cc1Cl)[C@](O)(c1ccc2c(c1)N(C)C(=O)CO2)C(F)(F)F` (relative stereo) [Example 41, {3′-Chloro-4′-[3,3,3-trifluoro-2-hydroxy-1-methyl-2-(4-methyl-3-oxo-3,4-dihydro-2H-benzo[1,4]oxazin-6-yl)-propyl]-biphenyl-3-yl}-acetic acid], the Ki was 1.5 nM.
As for `C[C@@H](c1ccc(-c2ccc(C(=O)O)c(F)c2)cc1Cl)[C@](O)(c1ccc2oc(=O)n(C)c2c1)C(F)(F)F` [Example 119, 3′-Chloro-3-fluoro-4′-[(1S,2S)-3,3,3-trifluoro-2-hydroxy-1-methyl-2-(3-methyl-2-oxo-2,3-dihydro-benzooxazol-5-yl)-propyl]-biphenyl-4-carboxylic acid], the Ki is 0.3 nM.
As to `COC(=O)c1ccc(-c2ccc([C@H](C)[C@](O)(c3ccc(=O)n4ccccc34)C(F)(F)F)c(Cl)c2)cc1F` (stereo in doubt) [Example 49, 3′-Chloro-3-fluoro-4′-[3,3,3-trifluoro-2-hydroxy-1-methyl-2-(4-oxo-4H-quinolizin-1-yl)-propyl]-biphenyl-4-carboxylic acid methyl ester], the Ki was 16 nM.
Consider `C[C@H](c1ccc(-c2ccc(C(=O)O)c(F)c2)cc1Cl)[C@@](O)(c1ccc(C#N)cc1)C(F)(F)F` (relative stereo) [Example 152, 3′-Chloro-4′-[2-(4-cyano-phenyl)-3,3,3-trifluoro-2-hydroxy-1-methyl-propyl]-3-fluoro-biphenyl-4-carboxylic acid], for which the Ki is 46.2 nM.
For the compound `C[C@H](c1ccc(O)cc1Cl)[C@@](O)(c1ccc2oc(=O)n(C)c2c1)C(F)(F)F` (relative stereo) [Example 172, 5-[2-(2-Chloro-4-hydroxy-phenyl)-1-hydroxy-1-trifluoromethyl-propyl]-3-methyl-3H-benzooxazol-2-one], the Ki is 0.6 nM.
As to `COC(=O)c1cnc(Oc2ccc([C@H](C)[C@](O)(c3cc(C)c(C#N)c(C)c3)C(F)(F)F)c(Cl)c2)cc1C(F)(F)F` (stereo in doubt) [Example 145, 6-{3-Chloro-4-[2-(4-cyano-3,5-dimethyl-phenyl)-3,3,3-trifluoro-2-hydroxy-1-methyl-propyl]phenoxy}-4-trifluoromethyl-nicotinic acid methyl ester], the Ki was 3.1 nM.
With `COC(=O)c1ccc(-c2ccc([C@@H](C)[C@@](O)(c3ccc4oc(=O)n(C)c4c3)C(F)(F)F)c(Cl)c2)cn1` (relative stereo) [Example 187, 5-{3-Chloro-4-[3,3,3-trifluoro-2-hydroxy-1-methyl-2-(3-methyl-2-oxo-2,3-dihydro-benzooxazol-5-yl)-propyl]-phenyl}-pyridine-2-carboxylic acid methyl ester], the Ki was 2.1 nM.
As to `C[C@@H](c1cc(Oc2ccc(C(=O)O)cc2F)ccc1Cl)[C@](O)(c1ccc2c(c1)N(C)C(=O)CO2)C(F)(F)F` (relative stereo) [Example 16, 4-{4-Chloro-3-[3,3,3-trifluoro-2-hydroxy-1-methyl-2-(4-methyl-3-oxo-3,4-dihydro-2H-benzo[1,4]oxazin-6-yl)-propyl]-phenoxy}-3-fluoro-benzoic acid], the Ki is 2.5 nM.
Consider `C[C@H](c1ccc(Oc2ccc(C(=O)O)cn2)cc1Cl)[C@@](O)(c1ccc2oc(=O)n(C)c2c1)C(F)(F)F` (stereo in doubt) [Example 181, 6-{3-Chloro-4-[3,3,3-trifluoro-2-hydroxy-1-methyl-2-(3-methyl-2-oxo-2,3-dihydro-benzooxazol-5-yl)-propyl]-phenoxy}-nicotinic acid], for which the Ki was 0.5 nM.
With `C[C@@H](c1ccc(-c2ccc(C(=O)O)c(F)c2)cc1Cl)[C@](O)(c1cc(F)c2c(c1)N(C)C(=O)CO2)C(F)(F)F` (relative stereo) [Example 46, 3′-Chloro-3-fluoro-4′-[3,3,3-trifluoro-2-(8-fluoro-4-methyl-3-oxo-3,4-dihydro-2H-benzo[1,4]oxazin-6-yl)-2-hydroxy-1-methyl-propyl]-biphenyl-4-carboxylic acid], the inhibitory constant (Ki) is 10.9 nM.
Consider `COC(=O)c1ccc(-c2ccc([C@H](C)[C@](O)(c3cc(F)c4c(c3)N(C)C(=O)CO4)C(F)(F)F)c(Cl)c2)cc1F` (relative stereo) [Example 45, 3′-Chloro-3-fluoro-4′-[3,3,3-trifluoro-2-(8-fluoro-4-methyl-3-oxo-3,4-dihydro-2H-benzo[1,4]oxazin-6-yl)-2-hydroxy-1-methyl-propyl]-biphenyl-4-carboxylic acid methyl ester], for which the Ki is 2.1 nM.
Consider `C[C@@H](c1ccc(Oc2ncc(C(=O)O)cc2Cl)cc1Cl)[C@](O)(c1ccc2c(c1)N(C)C(=O)CO2)C(F)(F)F` [Example 224, 5-Chloro-6-{3-chloro-4-[(1S,2S)-3,3,3-trifluoro-2-hydroxy-1-methyl-2-(4-methyl-3-oxo-3,4-dihydro-2H-benzo[1,4]oxazin-6-yl)-propyl]-phenoxy}-nicotinic acid], for which the Ki was 0.8 nM.

Usually Ki stands for the equilibrium dissociation constant of an inhibitor or competing ligand from its target.
